Source: patent US8592451B2, “Reversible nondepolarizing neuromuscular blockade agents and methods for their use” (Cornell University, priority 2009, dated 2013)

What was measured:
[1] = system: twitch of the extensor digitorum; test: Reversal of neuromuscular blockade by L-cysteine or neostigmine in anesthetized rhesus monkeys; assay type: in vivo, rhesus monkeys (Macaca mulatta)
Protocol: A control dose of 0.15 mg/kg CW 002 was allowed to recover spontaneously to TOF 110-120%. A second dose was given 60 minutes later, followed one minute afterwards by either neostigmine (0.05 mg/kg+atropine 0.05 mg/kg) or L-cysteine (10, 20, 30 or 50 mg/kg). Total duration and 5-95% recovery intervals were compared during spontaneous recovery vs. antagonism by L-cysteine or reversal by neostigmine.
This series of paired comparisons was designed to generate dose-response data comparing spontaneous recovery of high doses of CW 011 (from 4 to 64× ED95) versus immediate antagonism at +1 min by an optimal dose of L-cysteine (50 mg/kg), previously determined during studies of immediate antagonism of CW 002. This experiment was done to explore the limits of chemical antagonism by L-cysteine of these olefinic diester neuromuscular blocking drugs, using CW 011 as a typical example with an intermediate duration of action. Five groups of animals first received a control dose of CW 011 at 4, 8, 16, 32 or 64× ED 95 (0.1 to 1.6 mg/kg). Sixty minutes after spontaneous recovery of the control dose to TOF 110-120%, the same dose was repeated, followed 1 min later by L-cysteine (50 mg/kg). Total duration of action and 5-95% recovery interval were compared during spontaneous recovery and following antagonism by L-cysteine
The reversal of neuromuscular blockade by cysteine (5-50 mg/kg i.v.) was studied. Reversal was tested as follows: full paralysis was induced by injection of a dose of approximately 2-6× ED 95 of the compound in question. After spontaneous recovery of this dose, a second identical dose was given 15-30 min later. Cysteine was then given at +1 min after injection of the neuromuscular blocking drug at a point where no twitch was apparent (“immediate reversal”) or at the beginning of recovery from neuromuscular blockade at two percent twitch height (“classical reversal”). Comparisons were made among compounds with respect to rapidity and ease of cysteine reversal, by comparing 5-95% recovery times, and total durations of action (injection to 95% twitch recovery). Spontaneous recovery was compared with cysteine-accelerated recovery. […]

[2] = L-cysteine adduction kinetics in vitro (HPLC); assay type: physicochemical; conditions: pH 7.4, 37° C.; for NMBA peak area / [NMBA] remaining / ln* = ln (([NMBA]t[L-cysteine]t=0)/([NMBA]t=0[L-cysteine]t)): gantacurium 200 μg/mL + L-cysteine
Protocol: In a second experiment, to evaluate degradation in the presence of L-cysteine, buffered solutions (pH 7.4) of gantacurium, CW 002 or CW 011 were freshly prepared at 37° C. to give experimental concentrations of 1000 μg/mL (CW 002 and CW 011) and 200 μg/mL (gantacurium), after addition to and mixing with a 5% Molar excess of L-cysteine at time=0.
The concentration of neuromuscular blocking agent/parent compound remaining at specified time points after mixing was determined by high performance liquid chromatography. The concentration of blocking agent at each time point was determined from a separately prepared reaction mixture, due to the rapid rate of L-cysteine adduction. The reaction rate constant for the second order reaction of each neuromuscular blockade agent (NMBA) with L-cysteine was derived by plotting the natural log of ([NMBA]t[L-cysteine]t=0/[NMBA]t=0[L-cysteine]t) vs. time.
Concentrations selected were 200, 100 and 50 μg/ml which are approximately proportional to the relative potencies (ED 95) of gantacurium, CW 002 and CW 011 respectively. A degradation (adduction) pathway in the presence of L-cysteine for each of the three compounds was proposed.
The reaction of L-cysteine with CW 002, CW 011 or gantacurium is first order in the case of both the neuromuscular blockade agent (NMBA) and L-cysteine, represented by the rate equation (1). d[Adduct]/dt=−d[NMBA]/dt=ka[NMBA][L-cysteine] (1)
Calculation of the L-cysteine adduction half time requires experimental derivation of the reaction rate constant, ka, for each compound. The initial concentrations of NMBA and L-cysteine are unequal in the experiments conducted for this study, thus integration of equation 1 gives equation 2, where [NMBA]0 is the NMBA concentration at time equals 0 and [NMBA]t is the NMBA concentration at a time point, t.
[formula] A plot of the ln(([NMBA]t [L-cysteine]0)/([NMBA]0 [L-cysteine]t)) versus time (ln* vs. t) gives a line, with slope equal to ka([NMBA]0−[L-cysteine]0). An adduction reaction half time can be calculated by solving for ka to be used in equation 3.
NMBA standard solutions were prepared by a method similar to that used to prepare hydrolysis standards. The standards were prepared at 1000 μg/mL for CW 002 and CW 011 and 200 μg/mL for gantacurium.
Solutions used for determination of NMBA concentration at the reported times for CW 002 and CW 011 were prepared as follows: L-cysteine hydrochloride monohydrate was charged to a volumetric flask in de-ionized water. A 5 mL aliquot of the L-cysteine solution (1.05 equiv. L-cysteine with respect to NMBA) was transferred by volumetric pipette to a flask held at 37.0±0.3° C. CW 002 or CW 011 was then charged to a separate 25 mL volumetric flask and diluted to volume with pH 7.4 phosphate buffer at 37.0° C. The NMBA solution was then immediately transferred to the flask containing L-cysteine to give an initial NMBA concentration of 1000 μg/mL. Solutions used for determination of gantacurium concentration versus time were prepared in a similar manner to give an initial concentration of 200 μg/mL. T=0 was defined as the time of addition of NMBA solution to L-cysteine solution. The times listed in the results table show the point of HPLC sample injection following mixing of L-cysteine and NMBA at time=0 (Table 1, below).
Rate constants were calculated using equation (3) and the slope of the trend line derived from each data set. The strong linear correlation of the data within each set supports the use of second order kinetics for analysis of the cysteine adduction reactions.
Reaction half times were calculated using equation 4 and the experimentally determined rate constants. The initial NMBA concentrations were chosen to reflect the relative potency observed in vivo.

[3] = system: twitch of the extensor digitorum; test: Neuromuscular blocking potency and duration in anesthetized rhesus monkeys; assay type: in vivo, rhesus monkeys (Macaca mulatta)
Protocol: Experiments were approved by the Institutional Animal Care and Use Committee of Weill Medical College of Cornell University (New York, N.Y.) and of Albany Medical College (Albany, N.Y.), where the studies were conducted. A colony of 10 adult male monkeys (Macaca mulatta) weighing 8-18 kg was studied at ˜6 week intervals. Animals were housed and cared for in accordance with the Guide for Care and Use of Laboratory Animals (National Research Council, Washington, D.C.). They were fed a standard Old World monkey diet, enriched with fruits and vegetables, and other dietary novelties and were followed throughout the study to verify normal health by physical examination, body weight, and clinical laboratory studies (Complete Blood Count, Blood Urea Nitrogen and creatinine, and liver function tests).
On the day of each study, monkeys received ketamine (7-10 mg/kg i.m.) followed by tracheal intubation under topical anesthesia with 4% lidocaine. Ventilation was controlled at 10 mL/kg and 20 breaths/min with isoflurane (1.0-2.0%) and N2O/O2 (2:1 mixture). Ringers lactate was administered at ˜10 ml kg^−1 h^−1. Arterial pressure was monitored from a femoral, superficial tibial, or radial (22 gauge) cannula. Heart rate was measured by tachograph from the arterial pulse wave. Core temperature was kept at 36.5-38.0° C. by warming blankets. Electrocardiogram and pulse oximetry were monitored continuously.
Needle electrodes (25 gauge) transmitting square-wave pulses of 0.2 msec duration at supramaximal voltage which were generated by a Grass S-88 stimulator (Grass Instruments, Quincy, Mass.) were placed at the peroneal nerve at the knee to elicit twitch responses of the extensor digitorum of the foot at 0.15 Hz. A small slip (10-20%) of the tendon was dissected free under sterile technique and tied to a Grass FT 10 force transducer (Grass Instruments, Quincy, Mass.) at a baseline tension of 50 gm. Train-of four stimulation (TOF, 2 Hz for 2 sec) was interposed at appropriate points, especially 1-2 min prior to NMBA dosing and following recovery of twitch to 95% of baseline, where TOF was subsequently evaluated every 1-2 min.
Recordings of circulatory and neuromuscular data were made on a Grass 7B polygraph (Grass Instruments). A baseline period of 15-20 min was allowed for stabilization of recordings prior to dosing.^2
Dose-response curves for twitch blockade by gantacurium, CW 002, CW 011, cisatracurium, CW002-Cys, NB 938-69, NB 1064-81, NB 802-17 (CW 001), NB 832-65, and NB 1163-79, structures of which are all shown above, were generated as follows. […] Successive doses were separated by at least three estimated half lives beyond complete recovery of the previous dose to TOF of 110-120%, which is normal for these monkeys. Only the first one or two doses yielding 5 to 99% blockade were included from any single experiment for computation of dose-response data.
Comparative studies of spontaneous recovery versus antagonism/reversal were done at least 3 estimated half-lives following dose-response studies.
ED 50 and ED 95 were computed from the regression of log dose vs. the logit of percentage blockade of twitch.
CW002-Cys, the L-cysteine adduct of CW 002, was available in limited quantity and was administered in cumulative fashion to three animals to compare approximate potency and duration of effect versus its parent compound CW 002.

Compound	effect of neostigmine given immediately after the blocking drug ([1]; immediate reversal)	classical antagonism of neuromuscular blockade by neostigmine ([1]; neostigmine given at beginning of spontaneous recovery, e.g. at 2% twitch height)	Plot Slope (ln* vs. time) ([2]; L-cysteine adduction, data of Table 1)	NMBA peak area ([2]; Trial 1, 59 Sec) [mAU's]	[NMBA] remaining ([2]; Trial 1, 59 Sec) [µM]	ln* = ln (([NMBA]t[L-cysteine]t=0)/([NMBA]t=0[L-cysteine]t)) ([2]; Trial 1, 59 Sec)	NMBA peak area ([2]; Trial 2, 67 Sec) [mAU's]	[NMBA] remaining ([2]; Trial 2, 67 Sec) [µM]	ln* = ln (([NMBA]t[L-cysteine]t=0)/([NMBA]t=0[L-cysteine]t)) ([2]; Trial 2, 67 Sec)	NMBA peak area ([2]; Trial 3, 70 Sec) [mAU's]	[NMBA] remaining ([2]; Trial 3, 70 Sec) [µM]	ln* = ln (([NMBA]t[L-cysteine]t=0)/([NMBA]t=0[L-cysteine]t)) ([2]; Trial 3, 70 Sec)	NMBA peak area ([2]; Trial 4, 78 Sec) [mAU's]	[NMBA] remaining ([2]; Trial 4, 78 Sec) [µM]	ln* = ln (([NMBA]t[L-cysteine]t=0)/([NMBA]t=0[L-cysteine]t)) ([2]; Trial 4, 78 Sec)	ka, second order rate constant of L-cysteine adduction [2] [M⁻¹ s⁻¹]	half-life at 200 μg/ml ([2]; pH 7.4 buffered solution with L-cysteine, calculated at [NMBA]0 0.000188 M (200 μg/ml), read-out: L-cysteine adduction reaction half time t1/2) [s]	Duration (± SD/SEM), from injection to recovery of twitch to 95% of baseline ([3]; administered dose 0.04 mg/kg, spontaneous recovery) [min]	ED 95 (± SD/SEM) ([3]; twitch blockade, monkeys under isoflurane, twitch at 0.15 Hz, calculated from dose-response curve) [mg/kg]
COc1cc2c(cc1OC)[C@H](c1cc(OC)c(OC)c(OC)c1)[N@@+](C)(CCCOC(=O)/C=C(\Cl)C(=O)OCCC[N@+]1(C)CCc3cc(OC)c(OC)cc3[C@H]1Cc1cc(OC)c(OC)c(OC)c1)CC2 [Gantacurium, reference compound]	ineffective	showed antagonism	−0.0145	476.7	33	−0.46	384.2	27	−0.56	344.2	24	−0.62	281.5	20	−0.73	529.6	12		
COc1ccc(C[C@@H]2c3cc(OC)c(OC)cc3CC[N@@+]2(C)CCCOC(=O)CCC(=O)OCCC[N@+]2(C)CCc3cc(OC)c(OC)cc3[C@H]2Cc2ccc(OC)c(OC)c2)cc1OC [NB 1163-79]																		27.2 ± 2.6	0.032 ± 0.003
